From ChEMBL document CHEMBL1201862, “PubChem BioAssay data set” (2004)
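Where inhibition never reached the appropriate level, the endpoint shown equals the highest concentration tested. Otherwise, values were interpolated linearly from a five-concentration, 48-hour dose response in 96-well plates. GI50 = concentration required for 50% inhibition of growth.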 Active and inactive are the calls of the source. Rule as the data show it: active = GI50 up to about 1.1 µM and inactive = higher.

Experiments:
Assay in all cases: inhibition of tumour cell growth, NCI panel, 48 h
786-0 = test system: 786-0
A498 = test system: A498
CAKI-1 = test system: CAKI-1
HCC 2998 = test system: HCC 2998
HCT-116 = test system: HCT-116
HL-60 = test system: HL-60
KM12 = test system: KM12
LOX IMVI = test system: LOX IMVI
M14 = test system: M14
NCI-H226 = test system: NCI-H226
NCI-H460 = test system: NCI-H460
NCI-H522 = test system: NCI-H522
RXF 393 = test system: RXF 393
SF-295 = test system: SF-295
SNB-75 = test system: SNB-75
SR = test system: SR
HOP-92 = test system: HOP-92
NCI/ADR-RES = test system: NCI/ADR-RES
PC-3 = test system: PC-3
T47D = test system: T47D

Measured: GI50

COC(=O)C(=O)C1(CCC(C)=O)c2ccccc2-c2ccccc21
inactive: 786-0 85.1 µM | A498 88.5 µM | CAKI-1 35.2 µM | HCC 2998 72.3 µM | HCT-116 43.6 µM | HL-60 35.5 µM | KM12 74.3 µM | LOX IMVI 62.1 µM | M14 41 µM | NCI-H226 > 100 µM | NCI-H460 59.8 µM | NCI-H522 69.2 µM | RXF 393 57.4 µM | SF-295 > 100 µM | SNB-75 93.3 µM | SR 41 µM

COc1cc(/C=N/c2nncs2)ccc1O
inactive: 786-0 > 100 µM | A498 > 100 µM | CAKI-1 > 100 µM | HCC 2998 > 100 µM | HCT-116 > 100 µM | HL-60 > 100 µM | HOP-92 > 100 µM | KM12 > 100 µM | M14 > 100 µM | NCI-H226 > 100 µM | NCI-H460 > 100 µM | RXF 393 > 100 µM | SF-295 > 100 µM | SNB-75 > 100 µM | SR > 100 µM

CC(C)(C)c1ccc(Oc2ccc(C#N)c(C#N)c2)c(C(C)(C)C)c1
inactive: 786-0 52.6 µM | A498 > 63.5 µM | CAKI-1 56.4 µM | HCC 2998 48.9 µM | HCT-116 24.6 µM | HL-60 10.4 µM | HOP-92 31.8 µM | KM12 29.8 µM | LOX IMVI 30.6 µM | M14 53 µM | NCI-H226 46.6 µM | NCI-H460 28.8 µM | NCI-H522 17.2 µM | RXF 393 24.3 µM | SF-295 > 58.9 µM | SNB-75 > 26.3 µM | SR 18.7 µM

O=C(O)CCSC(=O)Nc1ccccc1
inactive: 786-0 > 100 µM | A498 > 100 µM | CAKI-1 > 100 µM | HCC 2998 > 100 µM | HCT-116 > 100 µM | HL-60 > 100 µM | KM12 > 100 µM | LOX IMVI > 100 µM | M14 > 100 µM | NCI-H226 > 100 µM | NCI-H460 > 100 µM | RXF 393 > 100 µM | SF-295 > 100 µM | SR > 100 µM

COc1cccc(NC(=O)CC(=O)N2N=C(N(CCC#N)c3ccc(Cl)cc3)CC2c2ccccc2)c1 (stereo not drawn)
inactive: 786-0 > 100 µM | A498 > 100 µM | CAKI-1 > 100 µM | HCC 2998 > 100 µM | HCT-116 > 100 µM | HL-60 > 100 µM | HOP-92 > 100 µM | KM12 > 100 µM | LOX IMVI > 100 µM | M14 > 100 µM | NCI-H226 > 100 µM | NCI-H460 > 100 µM | NCI-H522 > 100 µM | RXF 393 > 100 µM | SF-295 > 100 µM | SNB-75 > 100 µM | SR > 100 µM

CCc1cccc(CC)c1NC(=O)C(=O)Cc1nc2ccccc2o1
inactive: 786-0 > 100 µM | A498 > 100 µM | CAKI-1 > 100 µM | HCC 2998 > 100 µM | HCT-116 > 100 µM | HL-60 > 100 µM | HOP-92 > 100 µM | KM12 > 100 µM | LOX IMVI > 100 µM | M14 > 100 µM | NCI-H226 > 100 µM | NCI-H460 > 100 µM | NCI-H522 > 100 µM | RXF 393 > 100 µM | SF-295 > 100 µM | SR > 100 µM

O=C(c1cc(O)ccc1O)c1ccccc1C(Cl)(Cl)Cl
inactive: 786-0 > 100 µM | A498 82.8 µM | CAKI-1 93.1 µM | HCC 2998 > 100 µM | HCT-116 > 100 µM | HL-60 28.6 µM | HOP-92 38.8 µM | KM12 > 100 µM | M14 88.7 µM | NCI-H226 > 100 µM | NCI-H460 > 100 µM | NCI-H522 57.1 µM | RXF 393 > 100 µM | SF-295 55.7 µM | SNB-75 > 100 µM | SR 71.8 µM

CC1CC(=O)Nc2ccc(Cl)cc2N1C(=O)CN1CCC(CCCCN(C)C)CC1 (stereo not drawn)
inactive: 786-0 > 100 µM | A498 > 100 µM | CAKI-1 > 100 µM | HCC 2998 > 100 µM | HCT-116 > 100 µM | HL-60 > 100 µM | HOP-92 > 100 µM | LOX IMVI > 100 µM | M14 > 100 µM | NCI-H226 > 100 µM | NCI-H460 > 100 µM | SF-295 > 100 µM | SR > 100 µM

COc1ccc(CNc2nc(NC3CCCCC3)nc(NC3CCCCC3)n2)cc1
inactive: 786-0 5.71 µM | CAKI-1 5.14 µM | HCT-116 2.85 µM | HL-60 4.88 µM | HOP-92 8.75 µM | KM12 1.21 µM | LOX IMVI 1.79 µM | M14 4.42 µM | NCI-H226 2.99 µM | NCI-H460 3.44 µM | NCI-H522 4.31 µM | NCI/ADR-RES 4.24 µM | PC-3 5.15 µM | RXF 393 3.09 µM | SF-295 9.66 µM | SNB-75 8.81 µM | T47D 3.41 µM

CCCCC(C(=O)CCC(=O)Nc1ccc(Cl)cc1)C(=O)C(C)C (stereo not drawn)
inactive: 786-0 > 100 µM | A498 > 100 µM | CAKI-1 > 100 µM | HCC 2998 > 100 µM | HCT-116 > 100 µM | HL-60 > 100 µM | HOP-92 > 100 µM | KM12 > 100 µM | LOX IMVI 30.5 µM | M14 > 100 µM | NCI-H226 > 100 µM | NCI-H460 > 100 µM | NCI-H522 > 100 µM | RXF 393 > 100 µM | SF-295 > 100 µM | SNB-75 > 100 µM | SR > 100 µM

COc1ccc2c3ccc4c(c3n(C)c2c1)C(=O)c1ccccc1C4=O
inactive: 786-0 13.4 µM | A498 48.4 µM | HCC 2998 > 100 µM | HCT-116 30.1 µM | HL-60 > 100 µM | HOP-92 80 µM | M14 > 100 µM | NCI-H226 > 100 µM | NCI-H522 > 100 µM | RXF 393 > 100 µM | SF-295 78.2 µM | SNB-75 > 100 µM | SR > 100 µM

O=S1(=O)OCCOS(=O)(=O)C1I
inactive: 786-0 71 µM | A498 > 100 µM | CAKI-1 > 100 µM | HCC 2998 > 100 µM | HCT-116 > 100 µM | HL-60 53.2 µM | HOP-92 > 100 µM | KM12 > 100 µM | M14 > 100 µM | NCI-H226 28.6 µM | NCI-H522 > 100 µM | SF-295 56.2 µM | SNB-75 > 100 µM | SR 91.8 µM

N#CC(/C(=N\NC(N)=S)C(=O)NC1C2CC3CC(C2)CC1C3)c1ccc(Cl)cc1 (stereo not drawn)
inactive: 786-0 > 100 µM | A498 > 100 µM | CAKI-1 > 100 µM | HCC 2998 > 100 µM | HCT-116 > 100 µM | HL-60 > 100 µM | HOP-92 > 100 µM | KM12 > 100 µM | LOX IMVI > 100 µM | M14 > 100 µM | NCI-H226 > 100 µM | NCI-H460 > 100 µM | NCI-H522 > 100 µM | RXF 393 > 100 µM | SF-295 > 100 µM | SNB-75 > 100 µM | SR > 100 µM

O=C1NC(Cc2ccccc2)C(=O)N2CCCC12 (stereo not drawn)
inactive: 786-0 > 100 µM | A498 > 100 µM | CAKI-1 > 100 µM | HCC 2998 > 100 µM | HCT-116 > 100 µM | HL-60 > 100 µM | HOP-92 > 100 µM | KM12 > 100 µM | LOX IMVI > 100 µM | M14 > 100 µM | NCI-H226 > 100 µM | NCI-H460 > 100 µM | NCI-H522 > 100 µM | RXF 393 > 100 µM | SF-295 > 100 µM | SNB-75 > 100 µM | SR > 100 µM

COC(=O)CN1C(=O)C2(C(=O)OC)OC1(c1ccc([N+](=O)[O-])cc1)C1C(=O)N(c3ccccc3)C(=O)C12 (stereo not drawn)
inactive: 786-0 > 100 µM | A498 > 100 µM | CAKI-1 > 100 µM | HCT-116 > 100 µM | HL-60 > 100 µM | KM12 > 100 µM | LOX IMVI > 100 µM | M14 > 100 µM | NCI-H226 > 100 µM | NCI-H522 > 100 µM | NCI/ADR-RES > 100 µM | PC-3 > 100 µM | RXF 393 > 100 µM | SF-295 > 100 µM | SNB-75 > 100 µM | T47D > 100 µM

COc1cc2c(cc1O)[C@H](Cc1ccc(Oc3cc(C[C@H]4c5cc(OC)c(OC)cc5CCN4C)ccc3OC)cc1)NCC2
inactive: 786-0 12.4 µM | A498 13.7 µM | CAKI-1 4.08 µM | HCC 2998 6.62 µM | HCT-116 8.11 µM | HL-60 12.4 µM | HOP-92 5.16 µM | KM12 12.9 µM | LOX IMVI 8.95 µM | M14 1.81 µM | NCI-H226 12.7 µM | NCI-H460 14.3 µM | RXF 393 3.77 µM | SF-295 11.9 µM | SNB-75 6.56 µM | SR 7.5 µM

COC(=O)C1CC(OC(C)=O)C=C2C(=O)CCC21 (stereo not drawn)
inactive: 786-0 18.5 µM | A498 37.9 µM | CAKI-1 27 µM | HCC 2998 34.2 µM | HCT-116 16.3 µM | HL-60 16.1 µM | KM12 16.9 µM | M14 16.7 µM | NCI-H226 73.1 µM | NCI-H460 17.1 µM | NCI-H522 1.89 µM | RXF 393 14.8 µM | SNB-75 15.2 µM | SR 14 µM

c1cc2c(cc1NC1=NCCO1)CCC2
inactive: 786-0 > 10 µM | HCC 2998 > 10 µM | HCT-116 4.49 µM | HL-60 5.61 µM | HOP-92 7.5 µM | KM12 > 10 µM | LOX IMVI > 10 µM | PC-3 > 10 µM | RXF 393 > 10 µM | SF-295 > 10 µM | SNB-75 9.1 µM | SR > 10 µM | T47D > 10 µM
